“And” between values parts separate entries of the source, which are not always exact repeats. Equal entries are not always repeated.
How the values were obtained:
LRRK2^KW = target: T1, LRRK2^KW (Homo sapiens, UniProt Q5S007); test: DSF thermal stabilization of LRRK2^KW; assay type: binding; settings: DSF, LRRK2^KW, 10 μM inhibitor
T1 construct: LRRK2 R1847 to E2527; His6-Z-tag (TEV cleavable) (N, cleaved yes); host or cells: Sf9 insect cells (baculovirus)
T1 sequence (Q5S007 1847-2527): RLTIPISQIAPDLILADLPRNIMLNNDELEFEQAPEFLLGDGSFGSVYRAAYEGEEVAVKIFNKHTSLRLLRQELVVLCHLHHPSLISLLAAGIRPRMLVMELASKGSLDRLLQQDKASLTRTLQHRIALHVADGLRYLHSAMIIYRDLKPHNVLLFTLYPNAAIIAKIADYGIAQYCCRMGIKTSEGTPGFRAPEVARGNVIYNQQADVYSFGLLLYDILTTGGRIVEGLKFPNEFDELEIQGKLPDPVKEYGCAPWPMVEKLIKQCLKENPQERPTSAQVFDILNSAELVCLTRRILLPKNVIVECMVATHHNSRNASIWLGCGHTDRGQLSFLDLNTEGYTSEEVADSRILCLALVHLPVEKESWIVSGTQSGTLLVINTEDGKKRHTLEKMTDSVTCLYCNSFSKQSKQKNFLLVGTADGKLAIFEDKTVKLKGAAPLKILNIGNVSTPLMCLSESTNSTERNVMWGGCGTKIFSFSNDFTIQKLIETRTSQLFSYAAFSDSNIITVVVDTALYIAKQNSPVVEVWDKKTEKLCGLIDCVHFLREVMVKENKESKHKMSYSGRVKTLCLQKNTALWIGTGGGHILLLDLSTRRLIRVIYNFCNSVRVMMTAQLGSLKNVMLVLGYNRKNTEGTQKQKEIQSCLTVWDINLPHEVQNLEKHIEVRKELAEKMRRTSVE
Outline: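 DSF on 4 μM LRRK2^KW in 20 mM Hepes pH 7.4, 150 mM NaCl, 0.5 mM TCEP, 0.5% glycerol, 20 μM GDP, 2.5 mM MgCl2 with SYPRO Orange; inhibitor at 10 μM. Tm was taken as the minimum of the first derivative of fluorescence versus temperature, relative to control.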

LRRK2^RCKW = target: T2, LRRK2^RCKW (Homo sapiens, UniProt Q5S007); test: Biochemical LRRK2 activity assay (PhosphoSense, AssayQuant SOX peptide AQT0615); settings: for IC50: LRRK2^RCKW kinase activity, in vitro; for normalized response (LRRK2 activity): normalized to 0% (no kinase) and 100% (no inhibitor) control, two singlicate columns per compound
T2 construct: LRRK2 R1327 to E2527; His6-Z-tag (TEV cleavable) (N, cleaved yes); host or cells: Sf9 insect cells (baculovirus)
T2 sequence (Q5S007 1327-2527): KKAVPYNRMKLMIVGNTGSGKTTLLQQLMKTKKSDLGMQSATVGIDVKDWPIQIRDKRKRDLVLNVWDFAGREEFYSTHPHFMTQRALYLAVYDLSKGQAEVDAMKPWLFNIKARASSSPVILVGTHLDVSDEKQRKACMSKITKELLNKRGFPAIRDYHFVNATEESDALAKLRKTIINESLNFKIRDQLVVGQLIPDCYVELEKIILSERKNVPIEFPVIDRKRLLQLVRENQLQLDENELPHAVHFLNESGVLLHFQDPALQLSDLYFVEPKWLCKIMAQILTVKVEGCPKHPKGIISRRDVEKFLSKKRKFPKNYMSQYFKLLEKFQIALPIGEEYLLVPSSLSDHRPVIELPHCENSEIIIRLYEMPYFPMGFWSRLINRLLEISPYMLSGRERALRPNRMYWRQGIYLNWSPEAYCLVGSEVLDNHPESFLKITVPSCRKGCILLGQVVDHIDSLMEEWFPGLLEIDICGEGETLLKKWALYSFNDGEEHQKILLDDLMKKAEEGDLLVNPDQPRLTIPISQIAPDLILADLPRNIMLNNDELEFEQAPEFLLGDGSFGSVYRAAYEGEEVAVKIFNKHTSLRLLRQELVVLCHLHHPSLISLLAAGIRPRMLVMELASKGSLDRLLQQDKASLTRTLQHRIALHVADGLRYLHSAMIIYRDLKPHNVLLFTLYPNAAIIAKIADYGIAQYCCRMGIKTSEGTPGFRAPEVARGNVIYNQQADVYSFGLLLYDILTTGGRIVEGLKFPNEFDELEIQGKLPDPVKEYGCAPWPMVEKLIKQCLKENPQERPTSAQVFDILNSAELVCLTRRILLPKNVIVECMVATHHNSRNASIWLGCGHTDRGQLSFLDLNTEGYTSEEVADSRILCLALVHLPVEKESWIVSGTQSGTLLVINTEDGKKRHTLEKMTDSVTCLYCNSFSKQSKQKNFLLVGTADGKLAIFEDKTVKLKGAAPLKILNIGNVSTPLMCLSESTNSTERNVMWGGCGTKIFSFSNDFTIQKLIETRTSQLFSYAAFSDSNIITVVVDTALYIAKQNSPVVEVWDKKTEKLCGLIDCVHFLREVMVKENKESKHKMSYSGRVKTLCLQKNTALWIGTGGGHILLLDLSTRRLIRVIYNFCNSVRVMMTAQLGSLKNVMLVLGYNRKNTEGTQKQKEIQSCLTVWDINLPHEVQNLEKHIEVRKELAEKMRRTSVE
Outline: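 Controls lacked protein and compound (0%) or compound only (100%). IC50 derived by nonlinear regression of normalized response versus log[inhibitor].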

O=C(Nc1cccc(-c2c[nH]c3ncnc(N4CCOCC4)c23)c1)C1(C(=O)Nc2ccc(F)c(Cl)c2)CC1 [Compound 18]
∆Tm (K) (LRRK2^KW): 12.3 K
IC50 (LRRK2^RCKW): 152 ± 44 nM
normalized response (LRRK2 activity) (LRRK2^RCKW; log[inhibitor(mol)] -5.12494): -12.1904% and -14.2894%
normalized response (LRRK2 activity) (LRRK2^RCKW; log[inhibitor(mol)] -5.60206): -3.604% and -4.745%
normalized response (LRRK2 activity) (LRRK2^RCKW; log[inhibitor(mol)] -6.90309): 53.6603% and 67.7094%
normalized response (LRRK2 activity) (LRRK2^RCKW; log[inhibitor(mol)] -7.30103): 89.4919% and 81.5068%
normalized response (LRRK2 activity) (LRRK2^RCKW; log[inhibitor(mol)] -8.09691): 92.5361% and 84.907%
normalized response (LRRK2 activity) (LRRK2^RCKW; log[inhibitor(mol)] -8.61979): 95.9241% and 92.0144%
normalized response (LRRK2 activity) (LRRK2^RCKW; log[inhibitor(mol)] -9.09691): 91.7935% and 96.8386%
normalized response (LRRK2 activity) (LRRK2^RCKW; log[inhibitor(mol)] -9.39794): 94.1994% and 95.2858%

O=C(Nc1cccc(-c2c[nH]c3ncnc(N4CCOCC4)c23)c1)C1(C(=O)Nc2ccc(F)c(Br)c2)CC1 [Compound 19]
∆Tm (K) (LRRK2^KW): 14.0 K
IC50 (LRRK2^RCKW): 264 ± 19 nM
normalized response (LRRK2 activity) (LRRK2^RCKW; log[inhibitor(mol)] -4.82391): 3.161% and 1.4%
normalized response (LRRK2 activity) (LRRK2^RCKW; log[inhibitor(mol)] -5.12494): 3.805% and 3.935%
normalized response (LRRK2 activity) (LRRK2^RCKW; log[inhibitor(mol)] -5.60206): 9.506% and 13.5388%
normalized response (LRRK2 activity) (LRRK2^RCKW; log[inhibitor(mol)] -6.30103): 29.4238% and 33.7614%
normalized response (LRRK2 activity) (LRRK2^RCKW; log[inhibitor(mol)] -6.90309): 67.8273% and 68.8623%
normalized response (LRRK2 activity) (LRRK2^RCKW; log[inhibitor(mol)] -7.30103): 84.3755% and 91.2634%
normalized response (LRRK2 activity) (LRRK2^RCKW; log[inhibitor(mol)] -7.60206): 88.4282% and 94.2182%
normalized response (LRRK2 activity) (LRRK2^RCKW; log[inhibitor(mol)] -8.09691): 94.3856% and 94.7313%
normalized response (LRRK2 activity) (LRRK2^RCKW; log[inhibitor(mol)] -8.61979): 99.7343% and 99.0059%
normalized response (LRRK2 activity) (LRRK2^RCKW; log[inhibitor(mol)] -9.09691): 100.123% and 100.393%
normalized response (LRRK2 activity) (LRRK2^RCKW; log[inhibitor(mol)] -9.39794): 97.0165% and 71.9323%

Cc1cc(NC(=O)C2(C(=O)Nc3cccc(-c4c[nH]c5ncnc(N6CCOCC6)c45)c3)CC2)ccc1F [Compound 20]
∆Tm (K) (LRRK2^KW): 13.3 K
IC50 (LRRK2^RCKW): 110 ± 11 nM
normalized response (LRRK2 activity) (LRRK2^RCKW; log[inhibitor(mol)] -4.82391): -5.58% and -14.6884%
normalized response (LRRK2 activity) (LRRK2^RCKW; log[inhibitor(mol)] -5.12494): -12.9576% and -4.07%
normalized response (LRRK2 activity) (LRRK2^RCKW; log[inhibitor(mol)] -5.60206): -8.508% and -7.489%
normalized response (LRRK2 activity) (LRRK2^RCKW; log[inhibitor(mol)] -6.90309): 42.2259% and 43.1588%
normalized response (LRRK2 activity) (LRRK2^RCKW; log[inhibitor(mol)] -7.30103): 74.6695% and 77.6217%
normalized response (LRRK2 activity) (LRRK2^RCKW; log[inhibitor(mol)] -7.60206): 88.2582% and 90.1977%
normalized response (LRRK2 activity) (LRRK2^RCKW; log[inhibitor(mol)] -8.09691): 89.9215% and 96.544%
normalized response (LRRK2 activity) (LRRK2^RCKW; log[inhibitor(mol)] -8.61979): 106.119% and 94.9298%
normalized response (LRRK2 activity) (LRRK2^RCKW; log[inhibitor(mol)] -9.09691): 105.603% and 97.4708%
normalized response (LRRK2 activity) (LRRK2^RCKW; log[inhibitor(mol)] -9.39794): 68.2188% and 102.467%

COc1cc(NC(=O)C2(C(=O)Nc3cccc(-c4c[nH]c5ncnc(N6CCOCC6)c45)c3)CC2)ccc1F [Compound 21]
∆Tm (K) (LRRK2^KW): 9.3 K
IC50 (LRRK2^RCKW): 331 ± 59 nM
normalized response (LRRK2 activity) (LRRK2^RCKW; log[inhibitor(mol)] -5.12494): -8.581% and -13.1049%
normalized response (LRRK2 activity) (LRRK2^RCKW; log[inhibitor(mol)] -5.60206): -3.229% and 0.9871%
normalized response (LRRK2 activity) (LRRK2^RCKW; log[inhibitor(mol)] -6.30103): 31.841% and 40.7652%
normalized response (LRRK2 activity) (LRRK2^RCKW; log[inhibitor(mol)] -6.90309): 74.4117% and 83.0044%
normalized response (LRRK2 activity) (LRRK2^RCKW; log[inhibitor(mol)] -7.30103): 89.3998% and 91.1429%
normalized response (LRRK2 activity) (LRRK2^RCKW; log[inhibitor(mol)] -7.60206): 98.2625% and 97.8145%
normalized response (LRRK2 activity) (LRRK2^RCKW; log[inhibitor(mol)] -8.09691): 90.8667% and 93.1069%
normalized response (LRRK2 activity) (LRRK2^RCKW; log[inhibitor(mol)] -8.61979): 91.1981% and 94.2547%
normalized response (LRRK2 activity) (LRRK2^RCKW; log[inhibitor(mol)] -9.09691): 94.6536% and 91.2165%
normalized response (LRRK2 activity) (LRRK2^RCKW; log[inhibitor(mol)] -9.39794): 100.092% and 102.338%

CC(C)(C)c1cccc(NC(=O)C2(C(=O)Nc3cccc(-c4c[nH]c5ncnc(N6CCOCC6)c45)c3)CC2)c1 [Compound 22]
∆Tm (K) (LRRK2^KW): 12.0 K
IC50 (LRRK2^RCKW): 886 ± 63 nM
normalized response (LRRK2 activity) (LRRK2^RCKW; log[inhibitor(mol)] -4.82391): 10.3797% and 6.914%
normalized response (LRRK2 activity) (LRRK2^RCKW; log[inhibitor(mol)] -5.12494): 10.6927% and 10.684%
normalized response (LRRK2 activity) (LRRK2^RCKW; log[inhibitor(mol)] -5.60206): 26.6669% and 27.2452%
normalized response (LRRK2 activity) (LRRK2^RCKW; log[inhibitor(mol)] -6.30103): 59.6653% and 62.0504%
normalized response (LRRK2 activity) (LRRK2^RCKW; log[inhibitor(mol)] -6.90309): 86.7302% and 90.6112%
normalized response (LRRK2 activity) (LRRK2^RCKW; log[inhibitor(mol)] -7.30103): 94.29% and 100.35%
normalized response (LRRK2 activity) (LRRK2^RCKW; log[inhibitor(mol)] -7.60206): 102.254% and 104.876%
normalized response (LRRK2 activity) (LRRK2^RCKW; log[inhibitor(mol)] -8.09691): 100.313% and 102.032%
normalized response (LRRK2 activity) (LRRK2^RCKW; log[inhibitor(mol)] -8.61979): 105% and 108.964%
normalized response (LRRK2 activity) (LRRK2^RCKW; log[inhibitor(mol)] -9.09691): 105.539% and 102.73%
normalized response (LRRK2 activity) (LRRK2^RCKW; log[inhibitor(mol)] -9.39794): 104.285% and 104.996%

O=C(Nc1cccc(-c2c[nH]c3ncnc(N4CCOCC4)c23)c1)C1(C(=O)Nc2ccc(F)cc2F)CC1 [Compound 23]
∆Tm (K) (LRRK2^KW): 9.2 K
IC50 (LRRK2^RCKW): 159 ± 0.2 nM
normalized response (LRRK2 activity) (LRRK2^RCKW; log[inhibitor(mol)] -4.82391): -26.6261% and -31.2355%
normalized response (LRRK2 activity) (LRRK2^RCKW; log[inhibitor(mol)] -5.12494): -19.0277% and -21.4214%
normalized response (LRRK2 activity) (LRRK2^RCKW; log[inhibitor(mol)] -5.60206): -16.2351% and -13.5898%
normalized response (LRRK2 activity) (LRRK2^RCKW; log[inhibitor(mol)] -6.30103): 3.675% and 3.246%
normalized response (LRRK2 activity) (LRRK2^RCKW; log[inhibitor(mol)] -6.90309): 59.976% and 57.9812%
normalized response (LRRK2 activity) (LRRK2^RCKW; log[inhibitor(mol)] -7.30103): 81.7768% and 85.349%
normalized response (LRRK2 activity) (LRRK2^RCKW; log[inhibitor(mol)] -7.60206): 93.6348% and 95.0771%
normalized response (LRRK2 activity) (LRRK2^RCKW; log[inhibitor(mol)] -8.09691): 95.5743% and 95.9609%
normalized response (LRRK2 activity) (LRRK2^RCKW; log[inhibitor(mol)] -8.61979): 101.288% and 95.0587%
normalized response (LRRK2 activity) (LRRK2^RCKW; log[inhibitor(mol)] -9.09691): 106.438% and 96.5808%
normalized response (LRRK2 activity) (LRRK2^RCKW; log[inhibitor(mol)] -9.39794): 103.437% and 104.087%
